From patent US20050031610A1, “CD44-related fragments, compositions and methods” (priority 2002, published 2005)
“Also recorded” adds a separate entry of the source.

Legend:
HEK293 cells = experiment: Hyaluronan-mediated growth retardation, count of EGFP-positive CD44-transfected HEK293 cells; assay type: cell-based; conditions: 40 hour incubation
Protocol: FIG. 7. Effects of a γ-secretase inhibitor in hyaluronan-mediated growth retardation. HEK293 cells were transfected with constructs encoding both full-length CD44 and enhance green fluorescence protein (EGFP) in a single plasmid. Identical number of transfected cells were plated into multiple dishes and incubated with hyaluronan, hyaluronan plus Cpd. E, TPA, and TPA plus Cpd. E. After 40 hour incubation, the number of EGFP-positive cells were counted. Values represent the mean±s.d.
(§1) It has been previously reported that high molecular weight forms of hyaluronan (HA) induce cell growth arrest (Morrison et al., Genes and Development, 15, 968-980, 2001; Herrlich et al., Ann. NY Acad. Sci. 910, 106-118, 2000).

CD44 = experiment: Ligand-induced CD44 cleavage / generation of CD44-ICD in CD44-transfected cells (Western blot, anti-V5); assay type: cell-based
Description: FIG. 5. (A) Schematic representations of truncated CD44 constructs and putative cleavage sites of CD44. Starting amino acid sequences of truncated (ΔE) or intracellular (ICD) CD44 constructs and predicated proteolytic cleavage sites are indicated by arrows. Full-length (FL) and all ICD constructs contain C-terminal V5 tag, whereas all ΔE constructs harbor N-terminal HA tag located immediately after the signal peptide in addition to the C-terminal V5 tag. (B) Expression of truncated CD44 constructs in HEK293 cells. The lysates from the cells transfected with indicated constructs were analyzed by Western blot analyses. The locations of precursor polypeptide encoded by each constructs as well as the cleavage products (e.g. S1, T1, and T2) are shown on the right side of each blot. The lysates from full-length CD44-transfected cells grown in the absence (FL) or presence (FL+hyaluronan) of hyaluronan are shown as controls.
FIG. 6. Ligand-induced generation of CD44-ICD. Cells were treated for 24 hours with solvent only (Control), hyaluronan, hyaluronan plus Cpd. E, phorbol ester TPA, and TPA plus hyaluronan, and the lysates were analyzed by Western blotting using anti-V5 antibody.
as §1

γ-secretase [1] = experiment: In vitro CD44-ICD generation using membrane fractions from CD44-transfected 293 cells; assay type: biochemical; design: dose or concentration left out as unconfirmed; conditions: membrane fractions from dW and dAsp cells, 37° C.
Protocol: FIG. 4. In vitro generation of the CD44 intracellular domain (CD44-ICD). Membrane fractions prepared from either dW or dAsp cells transfected with full-length CD44 were incubated at 37° C. for the indicated hours with or without Cpd E (1 mM) or MG132 (50 mM). After the incubation, both the pellet (A) and the supernatant (B) were analyzed by Western blot analyses […] using anti-V5 antibody.
The incubation of the cytosol-free membrane fractions from dW cells transfected with CD44 led to the generation of two fragments (T1 and T2) in the membrane fractions (FIG. 4A) and the release of V5-epitope-tagged CD44-ICD into the soluble fraction (FIG. 4B).

γ-secretase [2] = experiment: Accumulation of membrane-associated CD44 C-terminal fragments in CD44-transfected CHO cells (Western blot, anti-V5); assay type: cell-based; conditions: CHO cells transfected with CD44 C-terminal V5-tag, 16 hours
Protocol: FIG. 1. The accumulation of membrane-associated C-terminal derivatives of CD44 by a γ-secretase inhibitor. The CHO cells transfected with constructs encoding CD44 with C-terminal V5-tag were incubated in the presence of the indicated concentrations of γ-secretase inhibitor Compound E (Cpd. E) for 16 hours. Detergent lysates were analyzed by Western blot analyses (4-20% Tris-Glycine SDS-PAGE) using anti-V5 antibody.
When constructs encoding full-length CD44 with C-terminal V5 epitope tag were transiently expressed, full-length CD44 (˜85 kDa) was constitutively processed to generate membrane-associated C-terminal fragments with apparent molecular weights of ˜19 to 22 kDa (FIG. 1). First, experiments were performed to determine whether a γ-secretase inhibitor blocks the putative intramembrane cleavage of CD44 to cause an accumulation of CD44 similar to that observed for APP and ErbB4 (Lee, H.-J., Jung, K.-M., Huang, Y. Z., Bennett, L. B., Lee, J. S., Mei, L. and Kim, T.-W., Presenilin-dependent γ-secretase-like intramembrane cleavage of ErbB4. J. Biol. Chem., 277:6318-6329 (2002)).

C[C@H](NC(=O)Cc1cc(F)cc(F)c1)C(=O)N[C@H]1N=C(c2ccccc2)c2ccccc2N(C)C1=O [Compound E]
effect on the growth inhibition induced by HA (HEK293 cells; hyaluronan plus Cpd. E): reverted the growth-inhibition
inhibition of the HA-induced accumulation of S1 and T1 cleavage products (CD44; hyaluronan plus Compound E): didn't inhibit
effect on T2 cleavage products (CD44; hyaluronan plus Cpd. E, 24 hours): selectively affected
generation of T1 fragments (γ-secretase [1]): not blocked
accumulation of transgene-derived CD44 C-terminal fragments (γ-secretase [2]): led to the accumulation

hyaluronan [HA]
growth of cells transfected with CD44 (HEK293 cells; HEK293 cells, full-length CD44 and EGFP): induced growth inhibition; also recorded: led to an inhibition of cell proliferation
levels of S1 and T1 cleavage products (CD44; cells treated with high molecular weight forms of HA): elevated
generation of CD44-ICD (CD44; cells treated with high molecular weight forms of HA, 24 hours): led to the generation of CD44-ICD
generation of S1 and T2 cleavage (CD44; full-length CD44-transfected HEK293 cells, FL vs. FL+hyaluronan): increased generation
